Our source for the IC50 values is US4898876A, “Benzoylpiperazine esters and a process for their production” (Kowa Co., Ltd., priority 1982, dated 1990).

Molecules are shown by their SMILES. Where a name gives a salt, the structure may show the parent alone.

The target in this assay is chymotrypsin (Bos taurus, UniProt P00766). Kind of assay: Chymotrypsin inhibitive activity (method of Muramatsu et al., acetyl-L-tyrosine ethyl ester substrate, Hestrin Method). The class given is biochemical. The settings on record: pH 8.0 tris-hydrochloric acid buffer, 10 minutes preincubation, 30° C., 30 minutes, absorbance at 530 nm, read-out: Chymotrypsin inhibitive activity [50% inhibition concentration (M)]. The procedure:
A solution prepared by mixing 0.1 ml of a dimethylsulfoxide solution containing a compound to be tested, 0.1 ml of water and 0.1 ml of a buffer solution containing 10 ug/ml of chymotrypsin (0.1M tris-hydrochloric acid buffer solution, pH 8.0) was incubated for 10 minutes by the method of Muramatsu et al. [see The Journal of Biochemistry, 62, 408 (1967)]. 0.2 ml of a buffer solution containing 25 mM of an acetyl-L-tyrosine ethyl ester was mixed with the above-prepared solution and reacted at 30° C. for 30 minutes. The amount of the remaining substrate was determined by causing the same to develop color by the Hestrin Method and measuring the absorbance at 530 nm. For comparative purposes, use was made of tosylphenylalanine chloromethyl ketone which was known as a chymotrypsin inhibitor (Comparative Compound I).
Regarding `CC(C)N1CCN(C(=O)c2ccc(OC(=O)COc3ccc4ccccc4c3)cc2)CC1` [Example 30], the IC50 was 9e-06 M.

For the compound `CC(C)N1CCN(C(=O)c2ccc(OC(=O)Cc3cc4ccccc4s3)cc2)CC1` [Example 3], the IC50 was determined as 9e-07 M.

Turning to `CC(C)N1CCN(C(=O)c2ccc(OC(=O)C3CCCc4cc(Cl)ccc43)cc2)CC1` (stereo not shown) [Example 17], the IC50 came to 8e-07 M.

Consider `CC(C)N1CCN(C(=O)c2ccc(OC(=O)CC3=CCCc4ccccc43)cc2)CC1` [Example 22], for which the IC50 is 3e-06 M.

Regarding `CC(C)N1CCN(C(=O)c2ccc(OC(=O)C3=Cc4ccccc4CC3)cc2)CC1` [Example 20], the IC50 turned out to be 5e-06 M.

With `CC(C)N1CCN(C(=O)c2ccc(OC(=O)CC3c4ccccc4-c4ccccc43)cc2)CC1` [Example 40], the IC50 came out at 1e-06 M.

For the compound `CC(C)N1CCN(C(=O)c2ccc(OC(=O)C3C=CCc4cc(Cl)ccc43)cc2)CC1` (stereo not shown) [Example 21], the IC50 amounted to 9e-06 M.

In the case of `O=C(Oc1ccc(C(=O)N2CCN(C3CCCCC3)CC2)cc1)C1CCCc2ccccc21` (stereo not shown) [Example 66], the IC50 stood at 9e-07 M.

In the case of `CC1CCC(C(=O)Oc2ccc(C(=O)N3CCN(C(C)C)CC3)cc2)c2ccccc21` (stereo not shown) [Example 15], the IC50 was found to be 8e-07 M.

Turning to `COc1ccc2c(c1)C(CC(=O)Oc1ccc(C(=O)N3CCN(C(C)C)CC3)cc1)=CC2` [Example 9], the IC50 was found to be 1e-06 M.

Take `CC(C)N1CCN(C(=O)c2ccc(OC(=O)C=C3c4ccccc4-c4ccccc43)cc2)CC1` [Example 2, 1-Isopropyl-4-[4-(9-fluorenylideneacetyloxy)benzoyl]piperazine]: the IC50 stood at 1e-07 M.

As to `Cc1ccc2c(c1)CCCC2C(=O)Oc1ccc(C(=O)N2CCN(C(C)C)CC2)cc1` (stereo not shown) [Example 18], the IC50 is 6e-07 M.

For the compound `CC(C)N1CCN(C(=O)c2ccc(OC(=O)CCc3ccc4ccccc4c3)cc2)CC1` [Example 32], the IC50 was found to be 7e-06 M.

As to `CCN1CCN(C(=O)c2ccc(OC(=O)C3CCCc4ccccc43)cc2)CC1` (stereo not shown) [Example 68], the IC50 came out at 9e-07 M.

Consider `COc1ccc2c(c1)C(C(=O)Oc1ccc(C(=O)N3CCN(C)CC3)cc1)CCC2` (stereo not shown) [Example 65, 1-Methyl-4-[4-(7-methoxyl-1,2,3,4-tetrahydro-1-naphtoyloxy)benzoyl]piperazine.methanesulfonate], for which the IC50 was 8e-07 M.

Consider `CC(C)N1CCN(C(=O)c2ccc(OC(=O)C3CCc4ccccc43)cc2)CC1` (stereo not shown) [Example 4], for which the IC50 worked out at 5e-06 M.

Regarding `CC(C)N1CCN(C(=O)c2ccc(OC(=O)Cc3cccc4c3CCCC4)cc2)CC1` [Example 1, 1-Isopropyl-4-[4-(5,6,7,8-tetraphydronaphthalene-1-acetyloxy)benzoyl]piperazine.hydrochloride], the IC50 was 3e-06 M.

As to `CC(C)N1CCN(C(=O)c2ccc(OC(=O)C3CCCc4ccccc43)cc2)CC1` (stereo not shown) [Example 67], the IC50 was 8e-07 M.

Regarding `CC(C)N1CCN(C(=O)c2ccc(OC(=O)Cc3cccc4ccccc34)cc2)CC1` [Example 24], the IC50 was found to be 5e-07 M.
